Measurements from US6765020B2, “Drugs for prevention and treatment of diseases caused by abnormalities in cartilage tissues” (Suntory Limited, priority 1995, dated 2004).

What was measured:
[1] = tested on: carrageenan-induced edema; conditions: rat models; cited from earlier work
[2] = tested on: chondrocytes of the rabbit knee joint; test: Synthesis of type II collagen by primary culture of chondrocytes (density of 116 kD band on electrophoresis); assay type: cell-based; conditions: for Activity of recovering the synthesis of type II collagen inhibited by arachidonic acid: fatty acid added at 300 μM
Description: Using the primary culture of chondrocytes of the rabbit knee joint, the effects of mead acid on the synthesis of type II collagen was compared with that of other fatty acids, in particular arachidonic acid. The mead acid used was 99% 5,8,11-cis-eicosatrienoic acid ethyl ester highly purified in the same manner as in Example 1, and for arachidonic acid, oleic acid and linoleic acid, the commercially available 99% ethyl esters thereof were used. Chondrocytes were prepared from the knee joints of 4-week old Japan white rabbits in accordance with the method of Suzuki and Shimomura [Shimomurra, Y., Yoneda, T., Suzuki, F. Osteogenesis by chondrocyte from growth cartilage of rat rib., Calcif. Tissue Int., 19:179-187, 1975]. The chondrocytes were plated at 10,000 cells/well of the 96-well plate (Iwaki Glass K.K.) in (MEM medium (50 μg/ml vitamin C, 1 ng/ml b-FGF were added) supplemented with 10% bovine calf serum, and pre-incubated for two days (5% CO2, 37° C.). The fatty acids were suspended in 0.0625% HCO-60 prior to use. As the pre-treatment with the fatty acids, the plates were divided into three groups and added thereto the solvent (0.0625% HCO-60) (group A), mead acid (the final concentration, 300 μM) (group B), and arachidonic acid (the final concentration, 300 μM) (group C), and then incubated for about 5 days while the culture medium and the fatty acids were replaced with fresh ones every two days.
Subsequently, the culture medium was replaced with αMEM medium (1 μg/ml transferrin, 1 μM dexamethasone, 2 μg/ml insulin, 50 μg/ml vitamin C) and each fatty acid (mead acid, arachidonic acid, oleic acid, and linoleic acid) was added thereto to a final concentration of 300 μM followed by incubation for seven days to synthesize extracellular matrix. The culture medium and each of the fatty acids were replaced every 2 days with freshly prepared ones. Pepsin (2 mg/ml) acetate solution was added to the plate at 200 μl/well and treated at 37° C. for 24 hours. The residue was recovered from each well and was centrifuged at 15,000 rpm for 10 minutes to form a precipitate, which was then washed once with tris-EDTA buffer (pH 8.0) and dissolved in 100 μl of the SDS sample buffer.
The amount of type II collagen synthesized was determined by electrophoresing 1/10 volume of each sample solution on the multigel 4/20 (Daiichi Kagaku K.K.) and measuring the density of the 116 kD band after staining with Cooumassie Brilliant Blue.

[3] = tested on: rabbit model of osteoarthritis; test: Range of motion (ROM) of the right knee joint in rabbit models of osteoarthritis prepared using arthrodesis by cast; assay type: in vivo; conditions: 0.6 ml of 1 mg/ml solution/joint, right articular cavity twice per week for five weeks; solvent group 70%
Description: Models of osteoarthritis were prepared using arthrodesis by cast. The animals used were 12-week old male rabbits (Kbl: NZW, Kitayama Labesu K. K.). Under anesthesia by intramuscular administration of 2 mg/kg of xylazine hydrochloride (Selactal, Bayer A. G.) and 50 mg/kg of ketamine hydrochloride (Ketalar 50 for animals, Sankyo K.K.) (hereinafter referred to as “under anesthesia”), hair was cut off the right hind leg. Then after the region from the upper thigh to the toe was covered with the stockinette and cast pad (3M Medicine K.K.), the knee joint was fixed for three weeks at a stretched and bent position by casting tape (3M Medicine K.K.). […]
In accordance with Example 2, models of osteoarthritis of the knee were prepared using arthrodesis by cast and were divided into three groups of five animals per group so that the average weight and the range of motion of joints of each group became uniform. […] In accordance with Example 2, dosage samples were administered in the right articular cavity twice per week for five weeks and ROM of the joint of the right knee was measured.

[4] = group C pretreated with arachidonic acid 300 μM (FIG. 3, sample No. 11-15)

SMILES	Activity of recovering the synthesis of type II collagen inhibited by arachidonic acid [2, 4]	ROM at week five after the start of administration [3] [%]	other results
CCCCCCCCC=CCC=CCC=CCCCC(=O)O [5,8,11-eicosatrienoic acid]	–	–	Anti-inflammatory effect on carrageenan-induced edema [1]: anti-inflammatory effect
CCCCC/C=C\C/C=C\C/C=C\C/C=C\CCCC(=O)O [arachidonic acid]	–	–	Effect of addition of fatty acid on synthesis of type II collagen ([2]; 300 μM, seven days, group A pretreated with solvent (FIG. 3, sample No. 1-5)): inhibited synthesis of type II collagen; Inhibition of type II collagen synthesis in group C pretreated with arachidonic acid ([2]; 300 μM, group C pretreated with arachidonic acid 300 μM (FIG. 3, sample No. 11-15)): more conspicuous
CCCCC/C=C\C/C=C\CCCCCCCC(=O)O [linoleic acid]	not observed	–	–
CCCCCCCC/C=C\CCCCCCCC(=O)O [oleic acid]	not observed	–	–
CCCCCCCCC=CC/C=C\CCCCC(=O)OCC [solution A, 6,9-cis-octadecadienoic acid ethyl ester]	–	80.2	–
CCCCCCCCC=CC/C=C\CCCCCCC(=O)OCC [solution B, 8,11-cis-eicosadienoic acid ethyl ester]	–	83.6	–
